# Measured values taken from patent publication US7662810B2, “2-arylmethylazetidine carbapenem derivatives and preparation thereof” (Korea Research Institute of Chemical Technology, priority 2004, dated 2010).
# Assays:
# [1] = system: Staphylococcus aureus 88E; assay: Measurement of Minimum Inhibitory Concentration (MIC), MRSA; format: cell-based; settings: Staphylococcus aureus 88E
# Experimental: (§1) The antibacterial activities of the compounds of the present invention prepared in the above Examples against Gram-positive and Gram-negative bacteria, MRSA and QRS were tested as follows.
# (§2) Respective bacterial strains were inoculated into 3 ml of Fleisch extract broth (beef extract 1%, peptone 1%, NaCl 0.3%, Na2HPO4.12H2O 0.2%, pH 7.4-7.5. 10% horse serum was supplemented for Streptococcus pyogenes and S. facium) and cultured on a shaking incubator at 37° C. for 18 hours. About 10^4 CFU/spot of the cultured bacterial strains were inoculated onto Müller-Hinton agar plates containing serial double dilutions (final concentration of 0.002 to 100 μg/ml) of a test compound employing an automatic inoculator (Dynatech, USA), and incubated at 37° C. for 18 hours. When the incubation was completed, the minimum inhibitory concentration was determined. Meropenem (Yuhan corporation, Korea) and vancomycin (Cj Inco., Korea) were used as standard antibiotics, respectively.
# [2] = system: Staphylococcus aureus 208E; assay: as above; format: cell-based; settings: Staphylococcus aureus 208E
# Experimental: as §1, §2
# [3] = system: Staphylococcus aureus 121E; assay: as above; format: cell-based; settings: Staphylococcus aureus 121E
# Experimental: as §1, §2
# [4] = system: Staphylococcus aureus 690E; assay: as above; format: cell-based; settings: Staphylococcus aureus 690E
# Experimental: as §1, §2
# [5] = system: Staphylococcus aureus 693E; assay: as above; format: cell-based; settings: Staphylococcus aureus 693E
# Experimental: as §1, §2
# [6] = system: Staphylococcus aureus 695E; assay: as above; format: cell-based; settings: Staphylococcus aureus 695E
# Experimental: as §1, §2
# [7] = system: Staphylococcus aureus 692E; assay: as above; format: cell-based; settings: Staphylococcus aureus 692E
# Experimental: as §1, §2
# [8] = system: Staphylococcus aureus 256E; assay: as above; format: cell-based; settings: Staphylococcus aureus 256E
# Experimental: as §1, §2
# [9] = system: Staphylococcus aureus 697E; assay: as above; format: cell-based; settings: Staphylococcus aureus 697E
# Experimental: as §1, §2
# [10] = system: Staphylococcus aureus 694E; assay: as above; format: cell-based; settings: Staphylococcus aureus 694E
# Experimental: as §1, §2
# Escherichia coli 1507 E = assay: Measurement of Minimum Inhibitory Concentration (MIC); format: cell-based
# Experimental: as §1, §2
# Escherichia coli DC 2 = assay: as above; format: cell-based
# Experimental: as §1, §2
# [11] = system: Staphylococcus aureus 503; assay: as above; format: cell-based
# Experimental: as §1, §2
# Escherichia coli 078 = assay: as above; format: cell-based
# Experimental: as §1, §2
# [12] = system: Enterobacter cloacae P 99; assay: as above; format: cell-based
# Experimental: as §1, §2
# Escherichia coli TEM = assay: as above; format: cell-based; settings: Escherichia coli TEM
# Experimental: as §1, §2
# [13] = system: Staphylococcus faecium MD 8b; assay: as above; format: cell-based; settings: Staphylococcus faecium MD 8b
# Experimental: as §1, §2
# [14] = system: Enterobacter cloacae 1321 E; assay: as above; format: cell-based
# Experimental: as §1, §2
# [15] = system: Salmonella typhimurium 179; assay: as above; format: cell-based; settings: Salmonella typhimurium 179
# Experimental: as §1, §2
# [16] = system: Staphylococcus aureus 285; assay: as above; format: cell-based
# Experimental: as §1, §2
# Escherichia coli DC 0 = assay: as above; format: cell-based
# Experimental: as §1, §2
# [17] = system: Klebsiella aerogenes 1522 E; assay: as above; format: cell-based
# Experimental: as §1, §2
# [18] = system: Staphylococcus pyogenes 308A; assay: as above; format: cell-based; settings: Staphylococcus pyogenes 308A
# Experimental: as §1, §2
# [19] = system: Staphylococcus pyogenes 77A; assay: as above; format: cell-based; settings: Staphylococcus pyogenes 77A
# Experimental: as §1, §2
# [20] = system: Klebsiella oxytoca 1082 E; assay: as above; format: cell-based
# Experimental: as §1, §2
# [21] = system: Staphylococcus epidermidis 178; assay: Measurement of Minimum Inhibitory Concentration (MIC), QRS; format: cell-based; settings: QRS, Staphylococcus epidermidis 178
# Experimental: as §1, §2
# [22] = system: Staphylococcus epidermidis 291; assay: as above; format: cell-based; settings: QRS, Staphylococcus epidermidis 291
# Experimental: as §1, §2
# [23] = system: Staphylococcus aureus 293; assay: as above; format: cell-based; settings: QRS, Staphylococcus aureus 293
# Experimental: as §1, §2
# [24] = system: Staphylococcus aureus 179; assay: as above; format: cell-based; settings: QRS, Staphylococcus aureus 179
# Experimental: as §1, §2
# [25] = system: Staphylococcus aureus 241; assay: as above; format: cell-based; settings: QRS, Staphylococcus aureus 241
# Experimental: as §1, §2
# [26] = molecular target: T1, Dihydropeptidase-1 (DHP-1) (Sus scrofa, UniProt P22412)
# T1 sequence (P22412 17-384): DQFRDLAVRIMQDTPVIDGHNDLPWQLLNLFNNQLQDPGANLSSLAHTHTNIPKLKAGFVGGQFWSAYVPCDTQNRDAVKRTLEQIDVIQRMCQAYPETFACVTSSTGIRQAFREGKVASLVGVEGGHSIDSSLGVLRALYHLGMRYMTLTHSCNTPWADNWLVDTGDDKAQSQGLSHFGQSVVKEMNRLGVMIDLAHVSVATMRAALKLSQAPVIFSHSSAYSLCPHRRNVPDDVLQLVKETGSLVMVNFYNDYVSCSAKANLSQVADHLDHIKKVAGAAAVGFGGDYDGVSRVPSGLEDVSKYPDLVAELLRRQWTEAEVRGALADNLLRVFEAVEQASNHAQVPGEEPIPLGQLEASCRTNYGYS
# [27] = molecular target: T1, Dihydropeptidase-1 (DHP-1); assay: Sensitivity Assay Against Dihydropeptidase-1 (DHP-1); settings: pig, DHP-1 enzyme extracted from hog kidney
compound,measurement,setting,value
"C[C@@H](O)[C@H]1C(=O)N2C(C(=O)[O-])=C(SC3CN([C@@H](C)c4ccccc4)C3)[C@H](C)[C@H]12.[K+] [Exam. 22, Potassium(1R,5S,6S)-2-{1-[(1S)-1-phenylethyl]-azetidine-3-yl-thio}-6-[(R)-1-hydroxylethyl]-1-methylcarbapen-2-em-3-carboxylate]",MIC,[1],0.025 µg/mL
same,MIC,[2],0.025 µg/mL
same,MIC,[3],0.049 µg/mL
same,MIC,[4],0.195 µg/mL
same,MIC,[5],3.125 µg/mL
same,MIC,[6],0.098 µg/mL
same,MIC,[7],0.025 µg/mL
same,MIC,[8],0.025 µg/mL
same,MIC,[9],0.025 µg/mL
same,MIC,[10],0.049 µg/mL
same,MIC,Escherichia coli 1507 E,0.195 µg/mL
same,MIC,Escherichia coli DC 2,0.025 µg/mL
same,MIC,[11],0.013 µg/mL
same,MIC,Escherichia coli 078,0.098 µg/mL
same,MIC,[12],0.391 µg/mL
same,MIC,Escherichia coli TEM,0.391 µg/mL
same,MIC,[13],1.563 µg/mL
same,MIC,[14],0.098 µg/mL
same,MIC,[15],0.049 µg/mL
same,MIC,[16],0.025 µg/mL
same,MIC,Escherichia coli DC 0,0.391 µg/mL
same,MIC,[17],0.391 µg/mL
same,MIC,[18],0.002 µg/mL
same,MIC,[19],0.002 µg/mL
same,MIC,[20],0.098 µg/mL
same,MIC,[21],0.195 µg/mL
same,MIC,[22],0.391 µg/mL
same,MIC,[23],0.195 µg/mL
same,MIC,[24],0.049 µg/mL
same,MIC,[25],0.049 µg/mL
same,T1/2 (time when the concentration of the medicament become the half),[26],65.99
same,stability against hydrolysis by DHP-1 (in words),[26],very stable
"C[C@@H](O)[C@H]1C(=O)N2C(C(=O)O)=C(SCCN=CN)C[C@H]12 [Imipenem, imipenem]",half-life at 500 μg/ml,[27],2.39 h
